Source: paper PMC10791743, “Selective CK1α degraders exert antiproliferative activity against a broad range of human cancer cell lines” (Nature Communications, 2024)

Test: Liver microsomes stability assay, human
Format: in vitro ADME
Protocol: page 31: using a REMS Autosampler (World Precision Instruments, Sarasota, […]1 cells were grown for 5 days to reach a consistent confluency level monitored by epithelial voltohmmeter to confirm the intactness of the confluent polarized monolayer. For transport experiments, each cultured monolayer on the 96-well plate was washed twice with a transport buffer (HBSS/25 mM […] The cell-based permeability assay was initiated by the addition of each compound solution (10 μmol/L) into inserts (apical side, A) or receivers (basolateral side, B). After incubated […] (if basal to apical permeability), and concentrations were assessed by UPLC/MS (Waters; Milford, MA). All compounds were tested in triplicates. The A→B (or B→A) apparent permeability coefficients (Papp) of each compound were calculated using the equation (3): […], where dQ/dt equals the flux of a drug across the monolayer, the parameters of A equals the surface area of total insert well, and C0 is the initial concentration of substrate in the donor compartment. The efflux ratio was determined by dividing the Papp in the B-A direction by the Papp in the A-B direction. […] NADPH regenerating agent solutions A and B (Corning GentestTM, Cat. No: 451220) were purchased from Discovery Labware (Woburn, MA). Mouse liver microsomes (CD-1, pooled, GibcoTM, Cat. No: MSMCPL) were obtained from Thermo Fisher Scientific (Fredrick, MD). Pooled human liver microsomes (mixed gender, Cat. No: E0630) were purchased from XenoTech (Lenexa, KS). Stock solutions of test compounds were prepared at 10 mM in DMSO. Sample preparation for microsomal stability was modified from Di's publications3,4. […] and 4 hours) by Labcyte Echo 650 acoustic dispenser (Beckman Coulter Life Sciences, Indianapolis, IN). All compounds were tested in triplicate per time point. […] Plasma stability assay5: The degradation of human or mouse plasma was assessed by monitoring the gradual reduction of the parent compound over specified time intervals (0, 3, 24, and 48 hours). […]

For O=C1CCC(N2Cc3cc(Nc4noc5ccccc45)ccc3C2=O)C(=O)N1 (stereo not drawn) [SJ3149], the half-life at 10 µM (both sexes, human, liver microsomes, pH 7.4, read-out: Microsome stability t1/2) was > 10 h.
For O=C1CCC(N2Cc3cc(Nc4noc5ccccc45)ccc3C2=O)C(=O)N1 (stereo not drawn) [SJ001043149-1], the Ke was -0.00692 and the “t(1/2)” value was -100.22.
